Data reported in patent publication US20260285850A1, “SUBSTITUTED OXAZOLIDINONES AND IMIDAZOLINONES AS HERBICIDES” (FMC CORPORATION, priority 2023, published 2026).

Legend:
Assay type in all cases: in vivo
rice (Oryza sativa) = test: Test B flooded paddy test, visual plant response rating 0-100; conditions: 250 g ai/ha, Flood, applied to paddy water, evaluated after 13 days
In short: (§1)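 Compounds applied to standing paddy water (3 cm above soil, maintained for the test duration) on 2-leaf-stage plants; visual rating vs controls at 13 days, greenhouse.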

[1] = test system: barnyardgrass (Echinochloa crusgalli); test: as above; conditions: 250 g ai/ha, Flood, applied to paddy water, evaluated after 13 days
In short: as §1

[2] = test system: sedge, umbrella (small-flower umbrella sedge, Cyperus difformis); test: as above; conditions: 250 g ai/ha, Flood, applied to paddy water, evaluated after 13 days
In short: as §1

[3] = test system: ducksalad (Heteranthera limosa); test: as above; conditions: 250 g ai/ha, Flood, applied to paddy water, evaluated after 13 days
In short: as §1

[4] = test system: wheat (Triticum aestivum); test: Test A preemergence soil spray, visual injury rating 0-100; conditions: 10 days, 0 = no effect, 100 = complete control
In short: (§2)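 Seeds sown in loam-sand blend got a preemergence directed soil spray, or emerged plants (2-10 cm, one- to two-leaf) got a postemergence spray, of compound in non-phytotoxic solvent with surfactant. After 10 days in greenhouse, injury rated visually versus untreated controls on a 0 (no effect) to 100 (complete control) scale.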

[5] = test system: green foxtail (Setaria viridis); test: as above; conditions: 10 days, 0 = no effect, 100 = complete control
In short: as §2

soybean (Glycine max) [6] = test: as above; conditions: 10 days, 0 = no effect, 100 = complete control
In short: as §2

[7] = test system: barnyardgrass (Echinochloa crus-galli); test: as above; conditions: 10 days, 0 = no effect, 100 = complete control
In short: as §2

[8] = test system: blackgrass (Alopecurus myosuroides); test: as above; conditions: 10 days, 0 = no effect, 100 = complete control
In short: as §2

[9] = test system: oat, wild (wild oat, Avena fatua); test: as above; conditions: 10 days, 0 = no effect, 100 = complete control
In short: as §2

corn (Zea mays) [10] = test: as above; conditions: 10 days, 0 = no effect, 100 = complete control
In short: as §2

kochia (Bassia scoparia) [11] = test: as above; conditions: 10 days, 0 = no effect, 100 = complete control
In short: as §2

[12] = test system: ryegrass, Italian (italian ryegrass, Lolium multiflorum); test: as above; conditions: 10 days, 0 = no effect, 100 = complete control
In short: as §2

[13] = test system: ragweed (common ragweed, Ambrosia artemisiifolia); test: as above; conditions: 10 days, 0 = no effect, 100 = complete control
In short: as §2

[14] = test system: palmer (palmer amaranth, palmer pigweed, Amaranthus palmeri); test: as above; conditions: 10 days, 0 = no effect, 100 = complete control
In short: as §2

[15] = test system: wheat (Triticum aestivum); test: Test A postemergence application, visual injury rating 0-100; conditions: Postemergence
In short: as §2

[16] = test system: green foxtail (Setaria viridis); test: as above; conditions: Postemergence
In short: as §2

[17] = test system: horseweed (Erigeron canadensis); test: as above; conditions: Postemergence
In short: as §2

soybean (Glycine max) [18] = test: as above; conditions: Postemergence
In short: as §2

[19] = test system: barnyardgrass (Echinochloa crus-galli); test: as above; conditions: Postemergence
In short: as §2

[20] = test system: blackgrass (Alopecurus myosuroides); test: as above; conditions: Postemergence
In short: as §2

[21] = test system: oat, wild (wild oat, Avena fatua); test: as above; conditions: Postemergence
In short: as §2

corn (Zea mays) [22] = test: as above; conditions: Postemergence
In short: as §2

[23] = test system: galium (catchweed bedstraw, Galium aparine); test: as above; conditions: Postemergence
In short: as §2

kochia (Bassia scoparia) [24] = test: as above; conditions: Postemergence
In short: as §2

[25] = test system: ryegrass, Italian (italian ryegrass, Lolium multiflorum); test: as above; conditions: Postemergence
In short: as §2

[26] = test system: ragweed (common ragweed, Ambrosia artemisiifolia); test: as above; conditions: Postemergence
In short: as §2

[27] = test system: palmer (palmer amaranth, palmer pigweed, Amaranthus palmeri); test: as above; conditions: Postemergence
In short: as §2

[28] = 31 g ai/ha, greenhouse 10 days, 0 no effect, 100 complete control
[29] = 125 g ai/ha, 10 days, 0 is no effect, 100 is complete control

CC(=O)COC(=O)C1C=CC(NC(=O)C2(C)CN(c3cc(Cl)cc(Cl)c3)C(=O)O2)C1 (stereo not shown) [Compound 67]
Plant response rating, Rice (0 to 100 scale, 0 is no effect and 100 is complete control) (rice (Oryza sativa)): 30
Plant response rating, Barnyardgrass (0 to 100 scale, 0 is no effect and 100 is complete control) [1]: 65
Plant response rating, Sedge, Umbrella (0 to 100 scale, 0 is no effect and 100 is complete control) [2]: 100
Plant response rating, Ducksalad (0 to 100 scale, 0 is no effect and 100 is complete control) [3]: 98
Wheat plant response rating (0-100) ([4]; 31 g ai/ha): 30
Wheat plant response rating (0 to 100 scale) ([4]; 125 g ai/ha): 90
Foxtail, Green plant response rating (0-100) ([5]; 31 g ai/ha): 20
Foxtail, Green plant response rating (0 to 100 scale) ([5]; 125 g ai/ha): 90
Soybean plant response rating (0-100) (soybean (Glycine max) [6]; 31 g ai/ha): 0
Soybean plant response rating (0 to 100 scale) (soybean (Glycine max) [6]; 125 g ai/ha): 30
Barnyardgrass plant response rating (0-100) ([7]; 31 g ai/ha): 50
Barnyardgrass plant response rating (0 to 100 scale) ([7]; 125 g ai/ha): 90
Blackgrass plant response rating (0-100) ([8]; 31 g ai/ha): 20
Blackgrass plant response rating (0 to 100 scale) ([8]; 125 g ai/ha): 70
Oat, Wild plant response rating (0-100) ([9]; 31 g ai/ha): 40
Oat, Wild plant response rating (0 to 100 scale) ([9]; 125 g ai/ha): 70
Corn plant response rating (0-100) (corn (Zea mays) [10]; 31 g ai/ha): 0
Corn plant response rating (0 to 100 scale) (corn (Zea mays) [10]; 125 g ai/ha): 70
Kochia plant response rating (0-100) (kochia (Bassia scoparia) [11]; 31 g ai/ha): 70
Kochia plant response rating (0 to 100 scale) (kochia (Bassia scoparia) [11]; 125 g ai/ha): 80
Ryegrass, Italian plant response rating (0-100) ([12]; 31 g ai/ha): 70
Ryegrass, Italian plant response rating (0 to 100 scale) ([12]; 125 g ai/ha): 80
Ragweed plant response rating (0-100) ([13]; 31 g ai/ha): 0
Ragweed plant response rating (0 to 100 scale) ([13]; 125 g ai/ha): 60
Amaranth, Palmer plant response rating (0-100) ([14]; 31 g ai/ha): 90
Amaranth, Palmer plant response rating (0 to 100 scale) ([14]; 125 g ai/ha): 100
Wheat plant response rating (0 to 100 scale) [15, 28]: 90
Wheat plant response rating (0 to 100 scale) [15, 29]: 90
Foxtail, Green plant response rating (0 to 100 scale) [16, 28]: 90
Foxtail, Green plant response rating (0 to 100 scale) [16, 29]: 90
Horseweed plant response rating (0 to 100 scale) [17, 28]: 50
Horseweed plant response rating (0 to 100 scale) [17, 29]: 70
Soybean plant response rating (0 to 100 scale) (soybean (Glycine max) [18]; [28]): 80
Soybean plant response rating (0 to 100 scale) (soybean (Glycine max) [18]; [29]): 80
Barnyardgrass plant response rating (0 to 100 scale) [19, 28]: 100
Barnyardgrass plant response rating (0 to 100 scale) [19, 29]: 100
Blackgrass plant response rating (0 to 100 scale) [20, 28]: 90
Blackgrass plant response rating (0 to 100 scale) [20, 29]: 100
Oat, Wild plant response rating (0 to 100 scale) [21, 28]: 90
Oat, Wild plant response rating (0 to 100 scale) [21, 29]: 90
Corn plant response rating (0 to 100 scale) (corn (Zea mays) [22]; [28]): 100
Corn plant response rating (0 to 100 scale) (corn (Zea mays) [22]; [29]): 100
Galium plant response rating (0 to 100 scale) [23, 28]: 80
Galium plant response rating (0 to 100 scale) [23, 29]: 90
Kochia plant response rating (0 to 100 scale) (kochia (Bassia scoparia) [24]; [28]): 70
Kochia plant response rating (0 to 100 scale) (kochia (Bassia scoparia) [24]; [29]): 70
Ryegrass, Italian plant response rating (0 to 100 scale) [25, 28]: 70
Ryegrass, Italian plant response rating (0 to 100 scale) [25, 29]: 90
Ragweed plant response rating (0 to 100 scale) [26, 28]: 50
Ragweed plant response rating (0 to 100 scale) [26, 29]: 80
Amaranth, Palmer / Pigweed, Palmer plant response rating (0 to 100 scale) [27, 28]: 80
Amaranth, Palmer / Pigweed, Palmer plant response rating (0 to 100 scale) [27, 29]: 90
